The source of these data is ChEMBL document CHEMBL5726691, “Carboxylic acid compound, method for preparation thereof, and use thereof” (2018).

In the assay the target is T1, Solute carrier family 22 member 12 (Homo sapiens, UniProt Q96S37).
T1 sequence (Q96S37 whole entry): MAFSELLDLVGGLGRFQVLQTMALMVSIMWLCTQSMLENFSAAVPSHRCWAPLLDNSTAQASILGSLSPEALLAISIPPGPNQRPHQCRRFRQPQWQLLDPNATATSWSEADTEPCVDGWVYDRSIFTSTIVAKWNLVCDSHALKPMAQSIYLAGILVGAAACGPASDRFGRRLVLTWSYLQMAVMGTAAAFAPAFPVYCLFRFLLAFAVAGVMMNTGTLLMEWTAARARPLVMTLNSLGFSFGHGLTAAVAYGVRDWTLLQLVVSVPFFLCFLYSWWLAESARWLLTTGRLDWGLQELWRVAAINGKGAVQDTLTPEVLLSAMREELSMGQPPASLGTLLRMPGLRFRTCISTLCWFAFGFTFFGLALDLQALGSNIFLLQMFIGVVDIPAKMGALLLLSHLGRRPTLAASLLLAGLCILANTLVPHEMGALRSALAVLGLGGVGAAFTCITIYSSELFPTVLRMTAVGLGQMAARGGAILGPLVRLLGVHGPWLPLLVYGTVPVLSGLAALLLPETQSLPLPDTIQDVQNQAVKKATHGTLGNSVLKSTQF
In words: 150 microliter of cell lysate (100 mM of NaOH) was added in each well. Cell plate was placed on a vibrating plate and vibrated for 10 min at a speed of 600 rpm such that the cells were completely lysed. The cell plate was put in a centrifuge and spun for 5 min at a speed of 1000 rpm, then 45 microliter of supernatant was sucked out from each well and transferred to 96-well plate (Isoplate-96 Microplate from PerkinElmer).

The structures appear in SMILES notation.

By IC50 is commonly meant the midpoint of a concentration-inhibition curve. Lower therefore signals greater potency in that assay.

In the case of `N#Cc1ccc(-c2ccccc2S(=O)(=O)CC2(CC(=O)O)CC2)cc1`, the IC50 is more than 1000 nM.
